Laboratory results from patent publication US20160287589A1, “SUBSTITUTED-IMIDAZOPYRIDAZINES” (BAYER PHARMA AKTIENGESELLSCHAFT, priority 2013, published 2016).

Molecular target: T1, MKNK1 (Homo sapiens, UniProt Q9BUB5, T385D)
T1 construct: GST (N); purchased Carna Biosciences 02-145; host or cells: insect cells (baculovirus expression system)
Experiment: MKNK1 kinase high ATP assay (TR-FRET-based)
Type: biochemical
Conditions: Table 2a; 2 mM ATP, 15 min preincubation
Experimental: MKNK1 Kinase High ATP Assay
MKNK1-inhibitory activity at high ATP of compounds of the present invention after their preincubation with MKNK1 was quantified employing the TR-FRET-based MKNK1 high ATP assay as described in the following paragraphs.
A recombinant fusion protein of Glutathione-S-Transferase (GST, N-terminally) and human full-length MKNK1 (amino acids 1-424 and T344D of accession number BAA 19885.1), expressed in insect cells using baculovirus expression system and purified via glutathione sepharose affinity chromatography, was purchased from Carna Biosciences (product no 02-145) and used as enzyme. As substrate for the kinase reaction the biotinylated peptide biotin-Ahx-IKKRKLTRRKSLKG (C-terminus in amide form) was used, which can be purchased e.g. from the company Biosyntan (Berlin-Buch, Germany).
For the assay 50 nL of a 100 fold concentrated solution of the test compound in DMSO was pipetted into a black low volume 384 well microtiter plate (Greiner Bio-One, Frickenhausen, Germany), 2 μL of a solution of MKNK1 in aqueous assay buffer [50 mM HEPES pH 7.5, 5 mM magnesium chloride, 1.0 mM dithiothreitol, 0.005% (v/v) Nonidet-P40 (Sigma)] was added and the mixture was incubated for 15 min at 22° C. to allow pre-binding of the test compounds to the enzyme before the start of the kinase reaction. Then the kinase reaction was started by the addition of 3 μL of a solution of adenosine-tri-phosphate (ATP, 3.3 mM=>final conc. in the 5 μL assay volume is 2 mM) and substrate (0.1 μM=>final conc. in the 5 μL assay volume is 0.06 μM) in assay buffer and the resulting mixture was incubated for a reaction time of 30 min at 22° C. The concentration of MKNK1 was adjusted depending of the activity of the enzyme lot and was chosen appropriate to have the assay in the linear range, typical concentrations were in the range of 0.003 μg/mL. The reaction was stopped by the addition of 5 μL of a solution of TR-FRET detection reagents (5 nM streptavidine-XL665 [Cisbio Bioassays, Codolet, France] and 1 nM anti-ribosomal protein S6 (pSer236)-antibody from Invitrogen [#44921G] and 1 nM LANCE EU-W1024 labeled ProteinG [Perkin-Elmer, product no. AD0071]) in an aqueous EDTA-solution (100 mM EDTA, 0.1% (w/v) bovine serum albumin in 50 mM HEPES pH 7.5).
The resulting mixture was incubated for 1 h at 22° C. to allow the formation of complex between the phosphorylated biotinylated peptide and the detection reagents. Subsequently the amount of phosphorylated substrate was evaluated by measurement of the resonance energy transfer from the Eu-chelate to the streptavidine-XL. Therefore, the fluorescence emissions at 620 nm and 665 nm after excitation at 350 nm were measured in a TR-FRET reader, e.g. a Rubystar (BMG Labtechnologies, Offenburg, Germany) or a Viewlux (Perkin-Elmer). The ratio of the emissions at 665 nm and at […] was taken as the measure for the amount of phosphorylated substrate. The data were normalised (enzyme reaction without inhibitor=0% inhibition, all other assay components but no enzyme=100% inhibition).

T1 sequence (Q9BUB5 1-424 isoform Q9BUB5-2 T344D): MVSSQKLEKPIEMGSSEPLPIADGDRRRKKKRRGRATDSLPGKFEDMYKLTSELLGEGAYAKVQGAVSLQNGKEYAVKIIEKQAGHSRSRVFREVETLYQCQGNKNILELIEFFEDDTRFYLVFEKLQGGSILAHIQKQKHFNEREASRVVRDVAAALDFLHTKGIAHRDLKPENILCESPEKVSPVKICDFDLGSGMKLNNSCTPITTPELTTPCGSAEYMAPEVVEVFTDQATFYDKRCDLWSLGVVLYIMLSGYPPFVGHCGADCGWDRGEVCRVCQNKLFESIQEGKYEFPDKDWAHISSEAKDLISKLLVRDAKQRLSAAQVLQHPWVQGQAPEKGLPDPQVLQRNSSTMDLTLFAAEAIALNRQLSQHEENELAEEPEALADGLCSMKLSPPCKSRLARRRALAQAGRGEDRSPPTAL

IC50	SMILES
4.8 nM	CC(C)(C)C(=O)N1CCC[C@H]1CCOc1ccc2ncc(-c3cc4ccccc4o3)n2n1 [Example I-3, 1-[(2S)-2-(2-{[3-(1-Benzofuran-2-yl)imidazo[1,2-b]pyridazin-6-yl]oxy}ethyl)-pyrrolidin-1-yl]-2,2-dimethylpropan-1-one]
7 nM	COc1cccc2oc(-c3cnc4ccc(OC[C@H]5CN(C(=O)C6CC6)CCO5)nn34)cc12 [Example I-41, Cyclopropyl[(2R)-2-({[3-(4-methoxy-1-benzofuran-2-yl)imidazo[1,2-b]pyridazin-6-yl]oxy}methyl)morpholin-4-yl]methanone]

Same assay, conditions: Table 2b; 2 mM ATP, 15 min preincubation

IC50	SMILES
4.4 nM	COc1ccc2ncc(-c3cc4c(N5CCN[C@@H](C)C5)cccc4o3)n2n1 [II-40, 6-methoxy-3-{4-[(3S)-3-methylpiperazin-1-yl]-1-benzofuran-2-yl}imidazo[1,2-b]pyridazine]
5.5 nM	C[C@H]1CN(c2cccc3oc(-c4cnc5ccc(OCC(F)(F)F)nn45)cc23)CCN1 [II-41, 3-{4-[(3S)-3-methylpiperazin-1-yl]-1-benzofuran-2-yl}-6-(2,2,2-trifluoroethoxy)im-idazo[1,2-b]pyridazine]
5.8 nM	C[C@H]1CN(c2cccc3oc(-c4cnc5ccc(OC[C@@H]6CCC(=O)N6)nn45)cc23)CCN1 [II-42, (5S)-5-{[(3-{4-[(3S)-3-methylpiperazin-1-yl]-1-benzofuran-2-yl}imidazo[1,2-b]pyridazin-6-yl)oxy]methyl}pyrrolidin-2-one]
7.1 nM	C[C@H]1CN(c2cccc3oc(-c4cnc5ccc(OCCCS(C)(=O)=O)nn45)cc23)CCN1 [II-52, 3-{4-[(3S)-3-methylpiperazin-1-yl]-1-benzofuran-2-yl}-6-[3-(methylsulfonyl)pro-poxy]imidazo[1,2-b]pyri-dazine]
0.3 nM	COc1ccc2ncc(-c3cc4c(N5CCNC(C)(C)C5)cccc4o3)n2n1 [II-60, 3-[4-(3,3-dimethylpiperazin-1-yl)-1-benzofuran-2-yl]-6-methoxy-imidazo[1,2-b]pyridazine]

Same assay, conditions: Table 2c; 2 mM ATP, 15 min preincubation

IC50	SMILES
3.7 nM	C[C@H]1COCCN1c1nccc2oc(-c3cnc4ccc(OC[C@@H]5CCC(=O)N5)nn34)cc12 [III-87, (5S)-5-{[(3-{4-[(3S)-3-Methylmorpholin-4-yl]furo[3,2-c]pyridin-2-yl}imidazo-[1,2-b]pyridazin-6-yl)oxy]methyl}pyrrolidin-2-one]
4.2 nM	C[C@H]1CN(c2nccc3oc(-c4cnc5ccc(OC[C@@H]6CCC(=O)N6)nn45)cc23)CCO1 [III-88, (5S)-5-{[(3-{4-[(2S)-2-Methylmorpholin-4-yl]furo[3,2-c]pyridin-2-yl}imidazo-[1,2-b]pyridazin-6-yl)oxy]methyl}pyrrolidin-2-one]
3.2 nM	COc1ccc2ncc(-c3cc4c(N5CCOC[C@H]5C)nccc4o3)n2n1 [III-92, 6-Methoxy-3-{4-[(3R)-3-methylmorpholin-4-yl]furo[3,2-c]pyridin-2-yl}imidazo[1,2-b]pyridazine]
5.6 nM	COc1ccc2ncc(-c3cc4c(N5CCOC[C@@H]5C)nccc4o3)n2n1 [III-93, 6-Methoxy-3-{4-[(3S)-3-methylmorpholin-4-yl]furo[3,2-c]pyridin-2-yl}imidazo[1,2-b]pyridazine]
4 nM	COc1ccc2ncc(-c3cc4c(N5CCO[C@@H](C)C5)nccc4o3)n2n1 [III-94, 6-Methoxy-3-{4-[(2S)-2-methylmorpholin-4-yl]furo[3,2-c]pyridin-2-yl}imidazo[1,2-b]pyridazine]
5.2 nM	C[C@H]1COCCN1c1nccc2oc(-c3cnc4ccc(O[C@H]5C[C@H](N)C5)nn34)cc12 [III-109, trans-3-[(3-{4-[(3S)-3-Methylmorpholin-4-yl]furo[3,2-c]pyridin-2-yl}imidazo[1,2-b]pyridazin-6-yl)oxy]cyclobutanamine]
10.4 nM	C[C@H]1CN(c2nccc3oc(-c4cnc5ccc(O[C@H]6C[C@H](N)C6)nn45)cc23)CCO1 [III-110, trans-3-[(3-{4-[(2S)-2-Methylmorpholin-4-yl]furo[3,2-c]pyridin-2-yl}imidazo[1,2-b]pyridazin-6-yl)oxy]cyclobutanamine]
4.2 nM	C[C@@H]1CN(c2nccc3oc(-c4cnc5ccc(OCC(F)(F)F)nn45)cc23)CCN1 [III-127, 3-{4-[(3R)-3-methylpiperazin-1-yl]furo[3,2-c]pyridin-2-yl}-6-(2,2,2-trifluoroethoxy)imidazo [1,2-b]pyridazine]

More lines, now with the values behind:

SMILES	IC50
C[C@@H](N)COc1ccc2ncc(-c3cc4c(N5CCOC[C@@H]5C)nccc4o3)n2n1 [III-5, (2R)-1-[(3-{4-[(3S)-3-Methylmorpholin-4-yl]furo[3,2-c]pyridin-2-yl}imidazo-[1,2-b]pyridazin-6-yl)oxy]propan-2-amine]	10.1 nM
C[C@@H](N)COc1ccc2ncc(-c3cc4c(N5CCO[C@@H](C)C5)nccc4o3)n2n1 [III-6, (2R)-1-[(3-{4-[(2S)-2-Methylmorpholin-4-yl]furo[3,2-c]pyridin-2-yl}imidazo-[1,2-b]pyridazin-6-yl)oxy]propan-2-amine]	8.8 nM
C[C@H](N)COc1ccc2ncc(-c3cc4c(N5CCOC[C@@H]5C)nccc4o3)n2n1 [III-28, (2S)-1-[(3-{4-[(3S)-3-Methylmorpholin-4-yl]furo[3,2-c]pyridin-2-yl}imidazo-[1,2-b]pyridazin-6-yl)oxy]propan-2-amine]	9.4 nM
C[C@H](N)COc1ccc2ncc(-c3cc4c(N5CCO[C@@H](C)C5)nccc4o3)n2n1 [III-29, (2S)-1-[(3-{4-[(2S)-2-Methylmorpholin-4-yl]furo[3,2-c]pyridin-2-yl}imidazo-[1,2-b]pyridazin-6-yl)oxy]propan-2-amine]	4.8 nM
C[C@H]1COCCN1c1nccc2oc(-c3cnc4ccc(OCCCS(C)(=O)=O)nn34)cc12 [III-59, 3-{4-[(3S)-3-Methylmorpholin-4-yl]furo[3,2-c]pyridin-2-yl}-6-[3-(methyl-sulfonyl)propoxy]imidazo[1,2-b]pyridazine]	4.9 nM
C[C@H]1CN(c2nccc3oc(-c4cnc5ccc(OCCCS(C)(=O)=O)nn45)cc23)CCO1 [III-60, 3-{4-[(2S)-2-Methylmorpholin-4-yl]furo[3,2-c]pyridin-2-yl}-6-[3-(methyl-sulfonyl)propoxy]imidazo[1,2-b]pyridazine]	2.8 nM
C[C@@H]1COCCN1c1nccc2oc(-c3cnc4ccc(OC[C@H]5CCC(=O)N5)nn34)cc12 [III-79, (5R)-5-{[(3-{4-[(3R)-3-Methylmorpholin-4-yl]furo[3,2-c]pyridin-2-yl}imidazo[1,2-b]pyridazin-6-yl)oxy]methyl}pyrrolidin-2-one]	0.7 nM
C[C@H]1COCCN1c1nccc2oc(-c3cnc4ccc(OC[C@H]5CCC(=O)N5)nn34)cc12 [III-84, (5R)-5-{[(3-{4-[(3S)-3-Methylmorpholin-4-yl]furo[3,2-c]pyridin-2-yl}imidazo[1,2-b]pyridazin-6-yl)oxy]methyl}pyrrolidin-2-one]	0.5 nM

Same assay, conditions: Table 2d; 2 mM ATP, 15 min preincubation

IC50	SMILES
7 nM	O=C1CC[C@H](COc2ccc3ncc(-c4cc5c(OCC6CC6)nccc5o4)n3n2)N1 [IV-12, (5R)-5-[({3-[4-(Cyclopropylmethoxy)furo[3,2-c]pyridin-2-yl]imidazo[1,2-b]-pyridazin-6-yl}oxy)methyl]pyrrolidin-2-one]
